Test results as given in patent US20220380366A1, “HETEROCYCLIC SULFOXIMINE COMPOUND AND INTERMEDIATE THEREOF, PREPARATION METHOD THEREFOR, AND APPLICATION THEREOF” (priority 2019, published 2022).
Read-outs that look alike come from different tables or passages of the source.

How the values were obtained:
[1] = biological target: T1, RET(V804M) mutant (Homo sapiens, UniProt P07949, V804M); experiment: Biochemical IC50 of RET(V804M) mutant (33P-ATP filter binding, Reaction Biology)
T1 construct: purchased Reaction Biology Corporation (contract assay; enzyme is the CRO's)
Experimental: (§1) For detailed test methods, the following references were referred to: T. Anastassiadis, S. W. Deacon, K. Devarajan, H. Ma, J. R. Peterson. […] Nat. Biotech.
(§2) The compounds of the present invention were dissolved in dimethyl sulfoxide (DMSO) to prepare 10 mM stock solutions, and ten different doses by 3-fold serial dilutions from 10 mM were prepared. The ATP concentration used in this determination was 1 μM.
(§3) Base reaction buffer: 20 mM 4-(2-hydroxyethyl)-1-piperazineethanesulfonic acid buffer (Hepes, pH 7.5), 10 mM magnesium chloride, 1 mM ethylene glycol-bis(3-aminoethylether)-N,N,N′,N′-tetraacetic acid (EGTA), 0.02% Brij™-35 (purchased from ThermoFisher Scientific), 0.02 mg/mL bovine serum albumin (BSA), 0.1 mM sodium orthovanadate (Na3VO4), 2 mM dithiothreitol (DTT), 1% dimethyl sulfoxide (DMSO).
(§4) a) adding the corresponding substrate to a freshly prepared base reaction buffer;
(§5) b) adding necessary cofactors;
(§6) c) adding kinase and shake gently;
(§7) d) adding the compounds in DMSO using Acoustic technology (Echo550; nanoliter range) and incubating at room temperature for 20 minutes;
(§8) e) adding 33P-ATP (specific activity 10 μCi/μL) to initiate the reaction;
(§9) f) incubating the kinase reaction at room temperature for 2 hours;
(§10) g) spotting the resultant of reaction on P81 ion exchange paper (purchased from Whatman);
(§11) h) detecting kinase activity by filter binding assay.
(§12) IC50 values were generated using Prism (GraphPad software).

[2] = biological target: T2, wild-type RET kinase (Homo sapiens, UniProt P07949); experiment: Biochemical IC50 of wild-type RET kinase (33P-ATP filter binding, Reaction Biology)
T2 construct: purchased Reaction Biology Corporation (contract assay; enzyme is the CRO's)
Experimental: as §1, §2, §3, §4, §5, §6, §7, §8, §9, §10, §11, §12

[3] = tested on: Phospho-RET in LC-2/ad lung cancer cells; experiment: Phospho-RET ELISA in LC-2/ad tumor cells; type: cell-based; settings: Homo sapiens, LC-2-ad, 1 h, read-out: Cell IC50 Phospho-RET
Experimental: (§13) The compounds of the present invention were dissolved in dimethyl sulfoxide (DMSO) to prepare 10 mM stock solutions, and ten different doses by 3-fold serial dilutions from 10 mM were prepared. An ELISA assay format was used in the test.
(§14) PathScan® Phospho-Ret (panTyr) and p44/42 MAPK (Thr202/Tyr204) (ERK) Sandwich ELISA kits were purchased from Cell Signaling Technology. The LC-2/ad lung cancer cell line was purchased from Sigma-Aldrich. […] The medium was supplemented with 10% fetal bovine serum (FBS), 100 μg/mL penicillin and 100 μg/mL streptomycin, and the cultures were maintained at 37° C. in a humidified atmosphere of 5% CO2 and 95% air.
(§15) a) 1.5×10^4 LC-2/ad cells were seeded in the wells of a 96-well tissue culture plate overnight;
(§16) b) the cells were treated with DMSO or the test compound in DMSO (the initial concentration was 1 μM, and ten doses by 3-fold serial dilutions) for one hour;
(§17) The plate was shaken for 1 minute, then placed on a rocking platform at 4° C. for 30 minutes;
(§18) d) 80 μL/well of lysate was added to the appropriate wells of each ELISA plate and the plate was incubated overnight at 4° C. on a rocking platform;
(§19) e) the contents of the plate were discarded into a container and the wells were washed for four times with 200 μL/well of 1×ELISA wash buffer;
(§20) f) 100 μL of reconstituted Phospho-Ret(panTyr) or Phospho-ERK(Thr202/Tyr204; p44/42MAPK) detection antibody was added to the appropriate wells and the plate was incubated at 37° C. for 1 hour;
(§21) g) the washing procedure was repeated and 100 μL of reconstituted HRP-linked secondary antibody was added to each well of two plates and the plates were incubated at 37° C. for 30 minutes;
(§22) h) the washing procedure was repeated, 100 μL of TMB substrate was added to each well, and the plates were incubated at 37° C. for 45 minutes;
(§23) i) 100 μL of STOP solution was added to each well and the plate was gently shaken for a few seconds.

[4] = biological target: T3, RET-CCDC6 (Homo sapiens, UniProt P07949); experiment: Biochemical IC50 of RET-CCDC6 fusion (33P-ATP filter binding, Reaction Biology)
T3 construct: CCDC6 (fusion partner, UniProt Q16204); purchased Reaction Biology Corporation (contract assay; enzyme is the CRO's); the other entry of the earlier key: CCDC6 (Q16204, Coiled-coil domain-containing protein 6)
T3 sequence (P07949 with tags, fused parts or gaps): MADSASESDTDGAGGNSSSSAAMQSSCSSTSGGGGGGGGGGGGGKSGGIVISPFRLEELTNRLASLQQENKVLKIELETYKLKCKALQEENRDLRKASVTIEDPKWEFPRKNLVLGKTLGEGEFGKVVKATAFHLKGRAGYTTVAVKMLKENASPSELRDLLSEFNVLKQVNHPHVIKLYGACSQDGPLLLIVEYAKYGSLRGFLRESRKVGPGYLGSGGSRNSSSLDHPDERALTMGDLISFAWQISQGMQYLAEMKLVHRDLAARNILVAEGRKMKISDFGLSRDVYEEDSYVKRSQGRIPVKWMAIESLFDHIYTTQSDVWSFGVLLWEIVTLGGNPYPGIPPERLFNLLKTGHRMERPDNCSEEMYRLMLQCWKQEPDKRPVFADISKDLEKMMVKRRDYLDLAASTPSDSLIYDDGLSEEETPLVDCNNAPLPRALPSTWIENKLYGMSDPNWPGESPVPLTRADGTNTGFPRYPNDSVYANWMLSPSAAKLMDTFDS
Experimental: as §1, §2, §3, §4, §5, §6, §7, §8, §9, §10, §11, §12

[5] = tested on: Phospho-ERK in LC-2/ad lung cancer cells; experiment: Phospho-ERK ELISA in LC-2/ad tumor cells; type: cell-based; settings: Homo sapiens, 1 h, read-out: Cell IC50 Phospho-ERK
Experimental: as §13, §14, §15, §16, §17, §18, §19, §20, §21, §22, §23

[6] = RET(V804M) mutant, ATP 1 μM, 33P-ATP filter binding, read-out: Biochemical IC50 RET (V804M)
[7] = wild-type RET kinase, ATP 1 μM, 33P-ATP filter binding, read-out: Biochemical IC50 RET
[8] = RET-CCDC6 fusion, ATP 1 μM, 33P-ATP filter binding, read-out: Biochemical IC50 RET-CCDC6

T2 sequence (P07949 29-1114): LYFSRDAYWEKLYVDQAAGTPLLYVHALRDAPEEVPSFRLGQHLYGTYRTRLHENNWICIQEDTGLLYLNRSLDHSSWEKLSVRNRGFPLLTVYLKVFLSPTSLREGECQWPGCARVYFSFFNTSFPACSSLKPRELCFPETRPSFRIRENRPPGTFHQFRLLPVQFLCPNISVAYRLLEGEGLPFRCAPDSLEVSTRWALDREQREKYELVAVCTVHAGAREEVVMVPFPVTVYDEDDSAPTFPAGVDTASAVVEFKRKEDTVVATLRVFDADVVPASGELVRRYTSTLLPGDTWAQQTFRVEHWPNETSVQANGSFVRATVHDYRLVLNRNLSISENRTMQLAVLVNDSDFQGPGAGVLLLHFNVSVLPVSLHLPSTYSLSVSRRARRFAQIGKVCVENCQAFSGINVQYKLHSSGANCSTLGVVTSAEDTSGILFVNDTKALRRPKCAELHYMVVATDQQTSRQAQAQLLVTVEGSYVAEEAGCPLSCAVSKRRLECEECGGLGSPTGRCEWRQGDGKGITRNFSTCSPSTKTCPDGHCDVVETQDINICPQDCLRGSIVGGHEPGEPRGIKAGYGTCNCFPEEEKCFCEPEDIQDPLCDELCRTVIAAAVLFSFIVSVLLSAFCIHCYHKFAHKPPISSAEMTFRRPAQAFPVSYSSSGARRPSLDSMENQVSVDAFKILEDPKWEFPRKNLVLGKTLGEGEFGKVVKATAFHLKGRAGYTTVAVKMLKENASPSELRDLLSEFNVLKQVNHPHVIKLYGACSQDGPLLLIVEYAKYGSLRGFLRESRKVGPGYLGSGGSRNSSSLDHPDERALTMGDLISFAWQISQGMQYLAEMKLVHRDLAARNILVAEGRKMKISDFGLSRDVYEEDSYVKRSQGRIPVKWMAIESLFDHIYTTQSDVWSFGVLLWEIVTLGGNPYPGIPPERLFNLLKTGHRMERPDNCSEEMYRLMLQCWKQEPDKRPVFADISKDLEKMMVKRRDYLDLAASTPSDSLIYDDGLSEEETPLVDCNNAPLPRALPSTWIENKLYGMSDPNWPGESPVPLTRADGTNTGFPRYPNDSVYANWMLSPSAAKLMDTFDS
T1 sequence (P07949 29-1114 V804M): as the sequence (P07949 29-1114) above, with V776M counted along it

SMILES	IC50 [1] [nM]	IC50 [2] [nM]	IC50 [3] [nM]	IC50 [4] [nM]	IC50 [5] [nM]	IC50 [1, 6] [nM]	IC50 [2, 7] [nM]	IC50 [4, 8] [nM]
COc1ccc(CN=S2(=O)CCN(c3ccc(-c4cc(-c5cnn(C)c5)cn5ncc(C#N)c45)cn3)CC2)cn1 [Ex. 14, 4-(6-(1-(((6-methoxypyridin-3-yl)methyl)imino)-1-oxothiomorpholinyl)pyridin-3-yl)-6-(1-methyl-1H-pyrazole-4-yl)pyrazolo[1,5-a]pyridine-3-carbonitrile]	5.21	0.657	11.5	0.336	82.5			
COc1ccc(N=S2(=O)CCN(c3ccc(-c4cc(-c5cnn(C)c5)cn5ncc(C#N)c45)cn3)CC2)cn1 [Ex. 15, 4-(6-(1-((6-methoxypyridin-3-yl)imino)-1-oxothiomorpholinyl)pyridin-3-yl)-6-(1-methyl-1H-pyrazole-4-yl)pyrazolo[1,5-a]pyridine-3-carbonitrile]			0.51		321	1.72	0.759	0.518
Cn1cc(-c2cc(-c3ccc(N4CCC(N=S(C)(C)=O)CC4)nc3)c3c(C#N)cnn3c2)cn1 [Ex. 16, 4-(6-(4-((dimethyloxo-λ^4-sulfinyl)amino)piperidin-1-yl)pyridin-3-yl)-6-(1-methyl-1H-pyrazole-4-yl)pyrazolo[1,5-a]pyridine-3-carbonitrile]	5.55	1.16	66.4	0.619	7.19			
Cn1cc(-c2cc(-c3ccc(N4CCC(N=[S@](C)(=O)c5ccccc5)CC4)nc3)c3c(C#N)cnn3c2)cn1 [Ex. 18, 4-(6-(4-(((R)—S-methyl-S-phenyl-oxo-λ^4-sulfinyl)amino)piperidin-1-yl)pyridin-3-yl)-6-(1-methyl-1H-pyrazole-4-yl)pyrazolo[1,5-a]pyridine-3-carbonitrile]			7.1		6.83	4.72	0.907	0.501
Cn1cc(-c2cn3ncc(C#N)c3c(-c3ccc(N4CCS(=N)(=O)CC4)nc3)n2)cn1 [Ex. 20, 4-(6-(1-imino-1-oxothiomorpholinyl)pyridin-3-yl)-6-(1-methyl-1H-pyrazole-4-yl)pyrazolo[1,5-a]pyrazine-3-carbonitrile]	7.91	1.16	91.4	0.677	7.77			
COc1ccc(CN=S2(=O)CCN(c3ccc(-c4nc(-c5cnn(C)c5)cn5ncc(C#N)c45)cn3)CC2)cn1 [Ex. 21, 4-(6-(1-(((6-methoxypyridin-3-yl)methyl)imino)-1-oxothiomorpholinyl)pyridin-3-yl)-6-(1-methyl-1H-pyrazole-4-yl)pyrazolo[1,5-a]pyrazine-3-carbonitrile]	7.83	1.02	21.3	0.528	6.42			
Cn1cc(-c2cn3ncc(C#N)c3c(-c3ccc(N4CCC(N=[S@](C)(=O)c5ccccc5)CC4)nc3)n2)cn1 [Ex. 25, 4-(6-(4-(((R)—S-methyl-S-phenyl-oxo-λ^4-sulfinyl)amino)piperidin-1-yl)pyridin-3-yl)-6-(1-methyl-1H-pyrazole-4-yl)pyrazolo[1,5-a]pyrazine-3-carbonitrile]	10.6	2.02	84.7	1.15	9.27			
